Measured values: ChEMBL document CHEMBL3045598, “Utilization of nicotinonitrile-2-thiol in the synthesis of new thiepino[2,3-b]pyridine derivative as an in vitro novel antitumor potent” (Med Chem Res, 2013)
Activity calls are given as the source filed them. The rule behind the calls is not given here.

What follows are compounds tested on Ehrlich (assay: Cytotoxicity against Mus musculus (mouse) EAC cells assessed as decrease in cell viability at 50 ug/ml by trypan blue exclusion assay).
Type: functional, cell-based
In the case of `CCOC(=O)C1CCSc2nc(C)cc(C)c2C1=O` (stereo not drawn), the Activity was “Active”. `CCOC(=O)CCCSc1nc(C)cc(C)c1C#N` was tested, and the Activity was “Active”. For `Cc1cc2n(c(=S)c1C#N)CCCC(=O)C2`, the Activity was “Active”.
